From US20090018151A1, “Topical Treatment of Peripheral diabetic complications” (priority 2007, published 2009)

Test system: diabetic neuropathy
Experiment: action of minoxidil on diabetic neuropathy (one foot minoxidil, other foot placebo, blinded)
Type: in vivo, human
Excerpt: Example: action of minoxidil on diabetic neuropathy. A subject with a history of type II diabetes and painful symmetric diabetic neuropathy with stable blood sugars for at least 4 weeks prior to beginning therapy had minoxidil applied to one foot and placebo applied to the other foot in a blinded fashion. […] They had not taken any other pain medication 3 months prior to initiating treatment and during treatment. They also had significant skin dryness. Within 2 weeks the subject reported a VAS score improvement of 3 on the foot with the minoxidil treatment.

`Nc1cc(N2CCCCC2)nc(N)[n+]1[O-]` [minoxidil, 6-(1-piperidinyl)pyrimidine-2,4-diamine 3-oxide] was tested, and the Re-growth of hair (foot treated with minoxidil vs placebo foot, subject had hair loss on the feet up to mid-calf) was “Re-growth of hair was found on the side treated with minoxidil only”, the “Improvement of the dryness of the skin” value (foot treated with minoxidil vs placebo foot, subject had significant skin dryness) was “Improvement of the dryness of the skin was also noted on the side treated with minoxidil only” and the VAS score improvement (person, type II diabetes, painful symmetric diabetic neuropathy, minoxidil applied to one foot, within 2 weeks) was 3.
